This note sets out measurements from the supplement of paper PMC10307832.

Common to all, as to assay: relative viability (nuclei count vs DMSO), 5 days (fraction); higher = more cells survive
Compound in the assay “Dasatinib + Phenformin”: Cc1nc(Nc2ncc(C(=O)Nc3c(C)cccc3Cl)s2)cc(N2CCN(CCO)CC2)n1 [Dasatinib] + N=C(N)NC(=N)NCCc1ccccc1 [Phenformin] (partner 250 µM)
The method in brief:
(§1)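 The day after seeding in 1536-well plates, lung cancer cell lines were treated by pin tool with a single drug, or with a fixed anchor-drug dose together with five library-drug doses (not always all listed) in √10 steps. After 5 days, a combined fix-and-stain solution (final 0.05% Triton X-100, 1% formaldehyde, 1 ug/ml Hoechst) was added. Nuclei counted on 4× images gave relative viability as treated counts over vehicle counts, reported as the median of duplicate plates.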

Compound in the assay “ALW-II-49-7 + Bortezomib”: Cc1ccc(C(=O)Nc2cccc(C(F)(F)F)c2)cc1Nc1cncc(C(N)=O)c1 [ALW-II-49-7] + CC(C)C[C@H](NC(=O)[C@H](Cc1ccccc1)NC(=O)c1cnccn1)B(O)O [Bortezomib] (partner 0.002 µM)
The method in brief:
as §1

Compound in the assay “XMD13-2 + Crizotinib”: C1CC1C(=O)NC2=NNC3=C2C=CC(=C3)C4=CC(=CC=C4)C(=O)NC5CC5 [XMD13-2] + C[C@@H](Oc1cc(-c2cnn(C3CCNCC3)c2)cnc1N)c1c(Cl)ccc(F)c1Cl [Crizotinib] (partner 1 µM)
In short, it runs like this:
as §1

Compound in the assay “Dasatinib + Vorinostat”: Cc1nc(Nc2ncc(C(=O)Nc3c(C)cccc3Cl)s2)cc(N2CCN(CCO)CC2)n1 [Dasatinib] + O=C(CCCCCCC(=O)Nc1ccccc1)NO [Vorinostat] (partner 1 µM)
The method in brief: as §1

Take UMC-11: the relative viability in the assay with Dasatinib + Phenformin (first compound 0.005 µM) came to 0.307; with Dasatinib + Phenformin (first compound 0.01581 µM) it was 0.332; with Dasatinib + Phenformin (first compound 0.05 µM), 0.265; with Dasatinib + Phenformin (first compound 0.1581 µM), 0.234; with Dasatinib + Phenformin (first compound 0.5 µM), 0.171; with ALW-II-49-7 + Bortezomib (first compound 0.08 µM) it was 0.514. For the same cell line, the relative viability stood at 0.786 with ALW-II-49-7 + Bortezomib (first compound 0.253 µM); 0.792 with ALW-II-49-7 + Bortezomib (first compound 2.53 µM); 0.521 with ALW-II-49-7 + Bortezomib (first compound 8 µM); 0.58 in the assay with XMD13-2 + Crizotinib (first compound 0.05 µM); 0.557 with XMD13-2 + Crizotinib (first compound 0.1581 µM); 0.647 with XMD13-2 + Crizotinib (first compound 0.5 µM). For the same cell line, the relative viability in the assay with XMD13-2 + Crizotinib (first compound 1.581 µM) worked out at 0.467; with XMD13-2 + Crizotinib (first compound 5 µM), 0.329; with Dasatinib + Vorinostat (first compound 0.005 µM) it was 0.409; with Dasatinib + Vorinostat (first compound 0.01581 µM), 0.289; in the assay with Dasatinib + Vorinostat (first compound 0.05 µM) it was 0.315; with Dasatinib + Vorinostat (first compound 0.1581 µM), 0.203. Also, in the assay with Dasatinib + Vorinostat (first compound 0.5 µM), the relative viability worked out at 0.218.
